In ChEMBL document CHEMBL1126576, “Structure-activity relationships of the antimalarial agent artemisinin. 1. Synthesis and comparative molecular field analysis of C-9 analogs of artemisinin and 10-deoxoartemisinin” (1993):
Activity calls are given as the source filed them. The rule behind the calls is not given here.

Columns and labels:
Plasmodium falciparum [1] = assay: In vitro relative potency against Plasmodium falciparum Sierra Leone D6; type: functional
Plasmodium falciparum [2] = assay: Relative activity compared to artemisinin against Plasmodium falciparum D6 (Sierra Leone); Not active; type: functional, organism-based
Plasmodium falciparum [3] = assay: Relative activity compared to artemisinin against Plasmodium falciparum Indochina W-2; Not active; type: functional, organism-based
Plasmodium falciparum [4] = assay: Relative activity against Plasmodium falciparum W2 Indochina compared to artemisinin; type: functional
Plasmodium falciparum [5] = assay: Relative activity against Plasmodium falciparum D6 (Sierra Leone) compared to artemisinin; type: functional
Plasmodium falciparum [6] = assay: Relative activity compared to artemisinin against Plasmodium falciparum Sierra Leone D6; type: functional
Plasmodium falciparum [7] = assay: Relative activity compared to artemisinin against Plasmodium falciparum Indochina W2; type: functional

`CO[C@H]1O[C@@]2(C)CC[C@H]3CCCC[C@]31OO2` gave a Relative activity (Plasmodium falciparum [1]) of 0.11.

With `CC1CCC2C(CCCCc3ccccc3)C(=O)OC3OC4(C)CCC1C32O4` (stereo unspecified) the Relative activity (Plasmodium falciparum [2]) was “inactive” and the Relative activity (Plasmodium falciparum [3]) was “inactive”.

Compound `CC(C)C[C@H]1C(=O)O[C@@H]2O[C@@]3(C)CC[C@H]4[C@H](C)CC[C@@H]1[C@@]24OO3` has a Relative activity (Plasmodium falciparum [4]) of 0.24 and a Relative activity (Plasmodium falciparum [5]) of 0.2.

For `C=CC[C@H]1C(=O)O[C@@H]2O[C@@]3(C)CC[C@H]4[C@H](C)CC[C@@H]1[C@@]24O3`, the Relative activity (Plasmodium falciparum [2]) was “inactive” and the Relative activity (Plasmodium falciparum [3]) was “inactive”.

With `C[C@]12CC[C@H]3CCCC[C@@]3(OO1)[C@H](OCc1ccccc1)O2` the Relative activity (Plasmodium falciparum [1]) was 0.03.

Compound `CCC[C@H]1C(=O)O[C@@H]2O[C@@]3(C)CC[C@H]4[C@H](C)CC[C@@H]1[C@@]24OO3` has a Relative activity (Plasmodium falciparum [4]) of 12.25 and a Relative activity (Plasmodium falciparum [5]) of 5.5.

Work on `C[C@@H]1CC[C@H]2[C@](C)(Br)[C@@H](Nc3nccs3)O[C@@H]3O[C@@]4(C)CC[C@@H]1[C@]32OO4` yielded a Relative activity (Plasmodium falciparum [1]) of 0.62.

For `CCCCCC[C@H]1C(=O)O[C@@H]2O[C@@]3(C)CC[C@H]4[C@H](C)CC[C@@H]1[C@@]24OO3`, the Relative activity (Plasmodium falciparum [4]) was 5.5 and the Relative activity (Plasmodium falciparum [5]) was 4.67.

`CCCCCC[C@H]1C(=O)O[C@@H]2O[C@@]3(C)CC[C@H]4[C@H](C)CC[C@@H]1[C@@]24O3` gave a Relative activity (Plasmodium falciparum [6]) of 0.07 and a Relative activity (Plasmodium falciparum [7]) of 0.02.

Work on `C[C@@H]1CC[C@H]2[C@@H](CCCCc3ccccc3)C(=O)O[C@@H]3O[C@@]4(C)CC[C@@H]1[C@]32OO4` yielded a Relative activity (Plasmodium falciparum [4]) of 3 and a Relative activity (Plasmodium falciparum [5]) of 1.37.

For `CCCCCCCCCCCCCC[C@H]1C(=O)O[C@@H]2O[C@@]3(C)CC[C@H]4[C@H](C)CC[C@@H]1[C@@]24O3`, the Relative activity (Plasmodium falciparum [4]) was 0.05 and the Relative activity (Plasmodium falciparum [5]) was 0.05.

For `C[C@@H]1CC[C@H]2CC(=O)O[C@@H]3O[C@@]4(C)CC[C@@H]1[C@@]23O4`, the Relative activity (Plasmodium falciparum [2]) was “inactive” and the Relative activity (Plasmodium falciparum [3]) was “inactive”.

With `C[C@@H]1CC[C@H]2[C@@H](C)C(=O)O[C@@H]3O[C@@]4(C)CC[C@@H]1[C@]32O4` [DEOXYARTEMISININ] the Relative activity (Plasmodium falciparum [6]) was 0.001 and the Relative activity (Plasmodium falciparum [7]) was 0.001.

In the case of `C[C@@H]1CC[C@H]2[C@H](C)C(=O)O[C@@H]3O[C@@]4(C)CC[C@@H]1[C@]32O4`, the Relative activity (Plasmodium falciparum [2]) is reported as “inactive” and the Relative activity (Plasmodium falciparum [3]) is reported as “inactive”.

Work on `CCC[C@H]1C(=O)O[C@@H]2O[C@@]3(C)CC[C@H]4[C@H](C)CC[C@@H]1[C@@]24O3` yielded a Relative activity (Plasmodium falciparum [6]) of 0.06 and a Relative activity (Plasmodium falciparum [7]) of 0.07.

`CCCC[C@H]1C(=O)O[C@@H]2O[C@@]3(C)CC[C@H]4[C@H](C)CC[C@@H]1[C@@]24OO3` gave a Relative activity (Plasmodium falciparum [4]) of 1.28 and a Relative activity (Plasmodium falciparum [5]) of 0.96.

Compound `CC(C)[C@H]1C(=O)O[C@@H]2O[C@@]3(C)CC[C@H]4[C@H](C)CC[C@@H]1[C@@]24O3` has a Relative activity (Plasmodium falciparum [6]) of 0.02 and a Relative activity (Plasmodium falciparum [7]) of 0.07.

With `C[C@@H]1CC[C@H]2[C@](C)(Br)[C@@H](Nc3cccc(F)c3)O[C@@H]3O[C@@]4(C)CC[C@@H]1[C@]32OO4` the Relative activity (Plasmodium falciparum [1]) was 3.5.

For `C[C@H]1CO[C@@H]2O[C@@]3(C)CC[C@H]4CCC[C@@H]1[C@]42OO3`, the Relative activity (Plasmodium falciparum [1]) was 4.02.

For `C[C@@H]1CC[C@H]2[C@@H](CCc3ccccc3)C(=O)O[C@@H]3O[C@@]4(C)CC[C@@H]1[C@]32OO4`, the Relative activity (Plasmodium falciparum [4]) was 1 and the Relative activity (Plasmodium falciparum [5]) was 1.69.

In the case of `C[C@@H]1CC[C@H]2[C@@H](C)C(=O)O[C@@H]3OC(C)(C)OO[C@@]32[C@H]1C`, the Relative activity (Plasmodium falciparum [1]) is reported as 0.4.

`C[C@@H]1CCC[C@@]23CO[C@@](C)(CC[C@@H]12)OO3` was tested, and the Relative activity (Plasmodium falciparum [1]) was 0.37.

`CC1(C)OO[C@]23CCCC[C@H]2CC(=O)O[C@@H]3O1` gave a Relative activity (Plasmodium falciparum [1]) of 0.01.

Work on `CC[C@H]1C(=O)O[C@@H]2O[C@@]3(C)CC[C@H]4[C@H](C)CC[C@@H]1[C@@]24OO3` yielded a Relative activity (Plasmodium falciparum [4]) of 12.26 and a Relative activity (Plasmodium falciparum [5]) of 6.42.

Compound `CO[C@]1(C)CC[C@H]2[C@H](C)CCC[C@]2(C=O)OO1` has a Relative activity (Plasmodium falciparum [1]) of 0.001.

Compound `C[C@@H]1CC[C@H]2C(C)(C)C(=O)O[C@@H]3O[C@@]4(C)CCC1[C@]32OO4` (stereo partly specified) has a Relative activity (Plasmodium falciparum [4]) of 0.006 and a Relative activity (Plasmodium falciparum [5]) of 0.02.

For `CC[C@H]1C(=O)O[C@@H]2O[C@@]3(C)CC[C@H]4[C@H](C)CC[C@@H]1[C@@]24O3`, the Relative activity (Plasmodium falciparum [6]) was 0.001 and the Relative activity (Plasmodium falciparum [7]) was 0.001.

For `CO[C@@H]1O[C@@]2(C)CC[C@H]3CCCC[C@]31OO2`, the Relative activity (Plasmodium falciparum [1]) was 0.13.

`O=C1C=C2CCCC3CC4OO[C@@]23[C@H](O1)O4` (single isomer, unassigned) was tested, and the Relative activity (Plasmodium falciparum [4]) was 0.02 and the Relative activity (Plasmodium falciparum [5]) was 0.02.

With `C[C@@H]1CC[C@H]2[C@@H](C)C(=O)O[C@@H]3O[C@@]4(C)CC[C@@H]1[C@]32OO4` [ARTEMISININ] the Relative activity (Plasmodium falciparum [4]) was 1 and the Relative activity (Plasmodium falciparum [5]) was 1.

Compound `C/C=C\CC1C(=O)O[C@@H]2O[C@@]3(C)CC[C@H]4[C@H](C)CC[C@@H]1[C@@]24OO3` (single isomer, unassigned) has a Relative activity (Plasmodium falciparum [4]) of 0.07 and a Relative activity (Plasmodium falciparum [5]) of 0.09.

Compound `C[C@@H]1CC[C@H]2CC(=O)O[C@@H]3O[C@@]4(C)CC[C@@H]1[C@@]23OO4` has a Relative activity (Plasmodium falciparum [4]) of 6.5 and a Relative activity (Plasmodium falciparum [5]) of 1.8.

`CC(C)CC[C@H]1C(=O)O[C@@H]2O[C@@]3(C)CC[C@H]4[C@H](C)CC[C@@H]1[C@@]24OO3` gave a Relative activity (Plasmodium falciparum [4]) of 0.98 and a Relative activity (Plasmodium falciparum [5]) of 1.57.

Work on `C/C=C/CC1C(=O)O[C@@H]2O[C@@]3(C)CC[C@H]4[C@H](C)CC[C@@H]1[C@@]24OO3` (single isomer, unassigned) yielded a Relative activity (Plasmodium falciparum [4]) of 0.22 and a Relative activity (Plasmodium falciparum [5]) of 0.38.

In the case of `CC1CCC2C(CCc3ccccc3)C(=O)OC3OC4(C)CCC1C32O4` (stereo unspecified), the Relative activity (Plasmodium falciparum [2]) is reported as “inactive” and the Relative activity (Plasmodium falciparum [3]) is reported as “inactive”.

Work on `C[C@@H]1CC[C@H]2[C@H](C)C(=O)O[C@@H]3O[C@@]4(C)CC[C@@H]1[C@]32OO4` yielded a Relative activity (Plasmodium falciparum [4]) of 0.67 and a Relative activity (Plasmodium falciparum [5]) of 0.14.

Compound `C[C@@H]1CC[C@H]2[C@@H](CCCc3ccccc3)C(=O)O[C@@H]3O[C@@]4(C)CC[C@@H]1[C@]32OO4` has a Relative activity (Plasmodium falciparum [4]) of 4.45 and a Relative activity (Plasmodium falciparum [5]) of 6.11.

`CC12CCC3CCCC4CC(=O)OC(O1)C34OO2` (stereo unspecified) gave a Relative activity (Plasmodium falciparum [4]) of 0.96 and a Relative activity (Plasmodium falciparum [5]) of 0.24.

Compound `CCCCC[C@H]1C(=O)O[C@@H]2O[C@@]3(C)CC[C@H]4[C@H](C)CC[C@@H]1[C@@]24OO3` has a Relative activity (Plasmodium falciparum [4]) of 8.67 and a Relative activity (Plasmodium falciparum [5]) of 3.67.

In the case of `CCCCCCCCCCCCCC[C@H]1C(=O)O[C@@H]2O[C@@]3(C)CC[C@H]4[C@H](C)CC[C@@H]1[C@@]24OO3`, the Relative activity (Plasmodium falciparum [4]) is reported as 0.001 and the Relative activity (Plasmodium falciparum [5]) is reported as 0.001.

For `CCCC[C@H]1C(=O)O[C@@H]2O[C@@]3(C)CC[C@H]4[C@H](C)CC[C@@H]1[C@@]24O3`, the Relative activity (Plasmodium falciparum [2]) was “inactive” and the Relative activity (Plasmodium falciparum [3]) was “inactive”.

`CC(C)CC[C@H]1C(=O)O[C@@H]2O[C@@]3(C)CC[C@H]4[C@H](C)CC[C@@H]1[C@@]24O3` showed a Relative activity (Plasmodium falciparum [6]) of 0.13 and a Relative activity (Plasmodium falciparum [7]) of 0.14.

`C[C@@H]1CC[C@H]2[C@](C)(Br)[C@@H](Nc3ccccc3)O[C@@H]3O[C@@]4(C)CC[C@@H]1[C@]32OO4` gave a Relative activity (Plasmodium falciparum [1]) of 0.16.

`C[C@@H]1CC[C@H]2[C@](C)(Br)[C@@H](Nc3ccccn3)O[C@@H]3O[C@@]4(C)CC[C@@H]1[C@]32OO4` showed a Relative activity (Plasmodium falciparum [1]) of 0.02.

`C[C@@H]1CC[C@H]2[C@@H](CC(=O)O)C(=O)O[C@@H]3O[C@@]4(C)CC[C@@H]1[C@]32OO4` showed a Relative activity (Plasmodium falciparum [4]) of 0.003 and a Relative activity (Plasmodium falciparum [5]) of 0.002.

`CC(C)[C@H]1C(=O)O[C@@H]2O[C@@]3(C)CC[C@H]4[C@H](C)CC[C@@H]1[C@@]24OO3` gave a Relative activity (Plasmodium falciparum [4]) of 0.84 and a Relative activity (Plasmodium falciparum [5]) of 2.03.

In the case of `CCCCC[C@H]1C(=O)O[C@@H]2O[C@@]3(C)CC[C@H]4[C@H](C)CC[C@@H]1[C@@]24O3`, the Relative activity (Plasmodium falciparum [2]) is reported as “inactive” and the Relative activity (Plasmodium falciparum [3]) is reported as “inactive”.

In the case of `C[C@@H]1CC[C@H]2[C@](C)(Br)[C@@H](Nc3ncccn3)O[C@@H]3O[C@@]4(C)CC[C@@H]1[C@]32OO4`, the Relative activity (Plasmodium falciparum [1]) is reported as 0.01.

For `CCCC[C@H]1C(=O)O[C@@H]2OC(C)(C)OO[C@@]23CCCC[C@@H]13`, the Relative activity (Plasmodium falciparum [1]) was 0.1.

`C[C@@H]1CC[C@H]2[C@@H](CCCc3ccccc3)C(=O)O[C@@H]3O[C@@]4(C)CC[C@@H]1[C@]32O4` showed a Relative activity (Plasmodium falciparum [6]) of 0.15 and a Relative activity (Plasmodium falciparum [7]) of 0.15.

`CC(C)CCC[C@H]1C(=O)O[C@@H]2O[C@@]3(C)CC[C@H]4[C@H](C)CC[C@@H]1[C@@]24O3` was tested, and the Relative activity (Plasmodium falciparum [2]) was “inactive” and the Relative activity (Plasmodium falciparum [3]) was “inactive”.

With `C[C@@H]1CC[C@H]2C(C)(C)C(=O)O[C@@H]3O[C@@]4(C)CC[C@@H]1[C@]32O4` the Relative activity (Plasmodium falciparum [2]) was “inactive” and the Relative activity (Plasmodium falciparum [3]) was “inactive”.

For `CC(C)C[C@H]1C(=O)O[C@@H]2O[C@@]3(C)CC[C@H]4[C@H](C)CC[C@@H]1[C@@]24O3`, the Relative activity (Plasmodium falciparum [2]) was “inactive” and the Relative activity (Plasmodium falciparum [3]) was “inactive”.

`CC(C)CCC[C@H]1C(=O)O[C@@H]2O[C@@]3(C)CC[C@H]4[C@H](C)CC[C@@H]1[C@@]24OO3` showed a Relative activity (Plasmodium falciparum [4]) of 0.74 and a Relative activity (Plasmodium falciparum [5]) of 0.31.

In the case of `C=CC[C@H]1C(=O)O[C@@H]2O[C@@]3(C)CC[C@H]4[C@H](C)CC[C@@H]1[C@@]24OO3`, the Relative activity (Plasmodium falciparum [4]) is reported as 0.72 and the Relative activity (Plasmodium falciparum [5]) is reported as 0.31.
